Experimental data published in patent publication US8609151B2, “Treatment of erectile dysfunction and libido enhancement” (CSIR, priority 2006, dated 2013).
≈ marks a conversion by molar mass, not a printed value. Entries after “also recorded” stand apart in the source; their conditions may differ. Where two headings read alike, the source gives them in different places.

Key:
[1] = biological target: T1, Phosphodiesterase 5 enzyme, partially purified from human platelets (Homo sapiens, UniProt O76074); test: in vitro inhibition of the phosphodiesterase 5 enzyme (MDS Pharma); type: biochemical
T1 construct: Phosphodiesterase 5 enzyme, partially purified from human platelets, was used; tissue MDS Pharma Laboratory in Taiwan (assay performed there); host or cells: human platelets
Experimental: Inhibition of the phosphodiesterase 5 enzyme limits the hydrolysis of cyclic Guanisine MonoPhosphate (cGMP) to acyclic Guanisine MonoPhosphate (5′GMP) and thereby increases the intracellular concentrations of cGMP which results in the relaxation of the corpus cavernosum smooth muscle. When this muscle is relaxed blood flows and fills the arteries causing the penis to erect.
The assay of the inhibition of the phosphodiesterase 5 enzyme was carried out by the MDS Pharma Laboratory in Taiwan. Phosphodiesterase 5 enzyme, partially purified from human platelets, was used. Test compounds and/or vehicles were incubated with 3.5 μg enzyme and 1 μM cGMP containing 0.01 μM [^3H]cGMP in Tris buffer at pH 7.5 for 20 minutes at 30° C. The reaction was terminated by boiling for 2 minutes and the resulting GMP was converted to guanosine by addition of 10 mg/ml snake venom nucleotidase and further incubation at 30° C. for 10 minutes. Unhydrolyzed cGMP was bound to AG1-X2 resin, and remaining [^3H]guanosine in the aqueous phase was quantitated by scintillation counting. […] Since enzyme activity could change from lot to lot, the concentration used was adjusted if necessary.

[2] = tested on: Chinese hamster ovarian cells (CHO); test: in vitro cytotoxicity, MTT assay; conditions: for cytotoxicity against Chinese hamster ovarian cells: at the test concentrations; for IC50: Cricetulus griseus
Experimental: In vitro cytotoxicity against mammalian cell line was assayed against Chinese hamster ovarian cells by the Assay Laboratory of the Department of Medicine, Division of Pharmacology, University of Cape Town, South Africa.
All samples were tested in triplicate on a single occasion. The MTT-assay was used as a calorimetric assay for cellular growth and survival, and compares well with other available assays (Mosman, Journal of Immunological Methods 65, 55-63 (1983) and Rubinstein et al., Journal of the National Cancer Institute 82, 1113-8 (1990)). The tetrazolium salt MTT was used to measure all growth and chemosensitivity.
Aqueous samples were dissolved in water and organic samples were dissolved in a methanol:water mixture (1:9) by volume. The initial concentration of stock solutions was 2 mg/ml for all samples. Samples were stored at −20° C. until use. […] Emetine was used as the positive control in all experiments. The initial concentration of emetine was 100 μg/ml, which was serially diluted in complete medium with 10-fold dilutions to give 6 concentrations, the lowest being 0.001 μg/ml. The same dilution technique was applied to all other samples with an initial concentration of 100 μg/ml to give 5 concentrations, with the lowest concentration being 0.01 μg/ml.
The 50% inhibitory concentration (IC50) values for these samples were obtained from dose-response curves, using a non-linear dose-response curve fitting analyses via GraphPad Prism v.2.01 software.

rabbit corpus cavernosum = rabbit corpus cavernosum relaxation/contraction, phenylephrine-contracted strip (MDS Pharma); type: cell-based; conditions: for Smooth Muscle relaxation (%) at 30 μM: relative to 0.3 μM sodium nitroprusside response, significant at ≧50%; for rabbit corpus cavernosum smooth muscle relaxation: isolated compounds at test concentration
Experimental: Rabbit corpus cavernosum relaxation/contraction was measured by the MDS Pharma Laboratory. Corpus cavernosum obtained from New Zealand-derived albino male rabbits weighing 2.5-3 kg and sacrificed by CO2 overexposure was used. A strip from the basal area of the corpus cavernosal was removed and placed under 2 g tension in a 10 ml bath containing Krebs solution at pH 7.4 at 32° C. and sub-maximal isometrically recorded tonic contraction was induced by phenylephrine (3 μM).

[3] = tested on: rabbit corpus cavernosal smooth muscle; test: relaxation of CaCl2 pre-contracted rabbit corpus cavernosal smooth muscle strips (University of Pretoria); type: cell-based
Experimental: Strips (12 mm long and 1-2 mm thick) of rabbit corpus cavernosal smooth muscle were dissected and mounted in an organ-bath chamber containing Krebs-PSS solution with the following composition: […] One end of the muscle was tied to the inside bottom of the perfusion bath and the other end to a thin wire connected to a Harvard isotonic force transducer for isotonic tension measurements. Changes in isotonic tension were recorded on a computerized calibrating program. […] This was followed by perfusion with 2 ml of high CaCl2 in Krebs-PSS (17.8 mg/ml) for muscle contraction. Base-line tension was set at the point of maximal contraction following the addition of CaCl2 into the experimental bath. The extracts to be analyzed were added after a stable contraction base-line. The same procedure was repeated for the positive control, Sildenafil. The contraction/relaxation was reported relative to Sildenafil tested at 78 ng/ml.

[4] = read-out: Phosphodiesterase 5 enzyme inhibition (%) at 10 μM, 10 μM, significant at ≧50%
[5] = read-out: Chinese hamster ovarian cell test IC50, MTT assay, triplicate, values ≦1.0 considered cytotoxic

Row | SMILES | cytotoxicity against Chinese hamster ovarian cells [2] | Smooth Muscle relaxation (%) at 30 μM (rabbit corpus cavernosum) | rabbit corpus cavernosum smooth muscle relaxation (rabbit corpus cavernosum) | inhibition at 10 µM [1, 4] | IC50 [2, 5] | other results
1 | COc1ccc(-c2c3c(c(OC)c4cc5c(cc24)OCO5)C(=O)OC3)cc1OC [Compound 7, 4-(3′,4′-dimethoxyphenyl)-9-methoxy-6,7-methylenedioxynaphtho[2,3-c]furan-1(3H)-one] | non-cytotoxic; also recorded: least toxic | 57% | observed | – | – | Phosphodiesterase 5 enzyme inhibition (%) at 10 μM ([1]; 10 μM, significant at ≧50%): 53%; phosphodiesterase 5 enzyme inhibition ([1]; isolated compounds at test concentration): Significant inhibition; Chinese hamster ovarian cell test IC50 ([2]; MTT assay, triplicate, values ≦1.0 considered cytotoxic): >100 µg/mL
2 | CCCc1nn(C)c2c(=O)[nH]c(-c3cc(S(=O)(=O)N4CCN(C)CC4)ccc3OCC)nc12 [Viagra] | – | – | – | – | – | relaxation ([3]; at […] 10^−2 μg/ml, footnote of Table 14, same figure as the Table 13 footnote): 100%; smooth muscle relaxation ([3]; at […] 10^−5 mg/ml, positive control): Viagra showed 100% smooth muscle relaxation at 1.8 × 10^−5 mg/ml
3 | COc1ccc(CC2COC(=O)/C2=C\c2ccc3c(c2)OCO3)cc1OC (stereo not drawn) [Compound 6, 3-(1′,3′-benzodioxol-5′-ylmethylene)-4-(3″,4″-dimethoxybenzyl)dihydrofuran-2(5H)-one] | non-cytotoxic; also recorded: least toxic | 71% | – | 35% | > 100 µg/mL | –
4 | CC[C@H]1CN2CCc3cc(OC)c(OC)cc3[C@@H]2C[C@@H]1C[C@H]1NCCc2cc(OC)c(OC)cc21 [Emetine, reference compound] | – | – | – | – | 0.04 µg/mL (≈ 0.0832 µM) | –
5 | COc1ccc(-c2c3c(c(O)c4cc5c(cc24)OCO5)COC3=O)cc1OC [Compound 5, 9-(3′,4′-dimethoxyphenyl)-4-hydroxy-6,7-methylenedioxynaphtho[2,3-c]furan-1(3H)-one] | non-cytotoxic | 75% | observed | 29% | 28.5 µg/mL (≈ 74.9 µM) | –
6 | COc1cc2c(-c3ccc4c(c3)OCO4)c3c(c(OC)c2c(OC)c1OC)COC3=O [Compound 3, 9-(1′,3′-benzodioxol-5′-yl)-4,5,6,7-tetramethoxynaphtho[2,3-c]furan-1(3H)-one] | – | 62% | – | – | – | inhibition at 10 µM ([1]; read-out: Phosphodiesterase 5 enzyme inhibition (%) at 10 μM): 11%; IC50 ([2]; read-out: Chinese hamster ovarian cell test IC50): 9 µg/mL (≈ 21.2 µM)
